In test [1] the target is Phosphatidylinositol 4,5-bisphosphate 3-kinase catalytic subunit gamma isoform (Homo sapiens, UniProt P48736). As to the kind of experiment: (§1) PI3K-gamma Scintillation Proximity Assay: Materials: [γ-33P]ATP (10 mCi/mL) and Wheat Germ Agglutinin (WGA) YSi SPA Scintillation Beads was purchased from Perkin Elmer (Waltham, Mass.). Lipid kinase substrate, D-myo-Phosphatidylinositol 4,5-bisphosphate (PtdIns(4,5)P2)D (+)-sn-1,2-di-O-octanoylglyceryl, 3-O-phospho linked (PIP2), CAS 204858-53-7, was purchased from Echelon Biosciences (Salt Lake City, Utah). PI3Kγ (p110γ) Recombinant Human Protein was purchased from Life technology (Grand Island, N.Y.). ATP, MgCl2, DTT, EDTA, MOPS and CHAPS were purchased from Sigma Aldrich (St. Louis, Mo.).The kinase reaction was conducted in polystyrene 384-well Greiner Bio-one white plate from Thermo Fisher Scientific in a final volume of 25 μL. Inhibitors were first diluted serially in DMSO and added to the plate wells before the addition of other reaction components. The final concentration of DMSO in the assay was 2%. The PI3Kγ assay was carried out at room temperature in 20 mM MOPS, pH 6.7, 10 mM MgCl2, 5 mM DTT and CHAPS 0.03%. Reactions were initiated by the addition of ATP, the final reaction mixture consisted of 20 μM PIP2, 2 μM ATP, 0.5 μCi [γ-33P] ATP, 13 nM PI3Kγ. Reactions were incubated for 120 min and terminated by the addition of 40 μL SPA beads suspended in quench buffer: 163 mM potassium phosphate pH 7.8, 20% glycerol, 25 mM EDTA. The final concentration of SPA beads is 1.0 mg/mL. […]. On the technique in general: In a scintillation proximity assay essentially only radioactivity close to the scintillant gives light.

The target of test [2] is T1, Phosphatidylinositol 4,5-bisphosphate 3-kinase catalytic subunit delta isoform (Homo sapiens, UniProt O00329).
T1 sequence (O00329 whole entry): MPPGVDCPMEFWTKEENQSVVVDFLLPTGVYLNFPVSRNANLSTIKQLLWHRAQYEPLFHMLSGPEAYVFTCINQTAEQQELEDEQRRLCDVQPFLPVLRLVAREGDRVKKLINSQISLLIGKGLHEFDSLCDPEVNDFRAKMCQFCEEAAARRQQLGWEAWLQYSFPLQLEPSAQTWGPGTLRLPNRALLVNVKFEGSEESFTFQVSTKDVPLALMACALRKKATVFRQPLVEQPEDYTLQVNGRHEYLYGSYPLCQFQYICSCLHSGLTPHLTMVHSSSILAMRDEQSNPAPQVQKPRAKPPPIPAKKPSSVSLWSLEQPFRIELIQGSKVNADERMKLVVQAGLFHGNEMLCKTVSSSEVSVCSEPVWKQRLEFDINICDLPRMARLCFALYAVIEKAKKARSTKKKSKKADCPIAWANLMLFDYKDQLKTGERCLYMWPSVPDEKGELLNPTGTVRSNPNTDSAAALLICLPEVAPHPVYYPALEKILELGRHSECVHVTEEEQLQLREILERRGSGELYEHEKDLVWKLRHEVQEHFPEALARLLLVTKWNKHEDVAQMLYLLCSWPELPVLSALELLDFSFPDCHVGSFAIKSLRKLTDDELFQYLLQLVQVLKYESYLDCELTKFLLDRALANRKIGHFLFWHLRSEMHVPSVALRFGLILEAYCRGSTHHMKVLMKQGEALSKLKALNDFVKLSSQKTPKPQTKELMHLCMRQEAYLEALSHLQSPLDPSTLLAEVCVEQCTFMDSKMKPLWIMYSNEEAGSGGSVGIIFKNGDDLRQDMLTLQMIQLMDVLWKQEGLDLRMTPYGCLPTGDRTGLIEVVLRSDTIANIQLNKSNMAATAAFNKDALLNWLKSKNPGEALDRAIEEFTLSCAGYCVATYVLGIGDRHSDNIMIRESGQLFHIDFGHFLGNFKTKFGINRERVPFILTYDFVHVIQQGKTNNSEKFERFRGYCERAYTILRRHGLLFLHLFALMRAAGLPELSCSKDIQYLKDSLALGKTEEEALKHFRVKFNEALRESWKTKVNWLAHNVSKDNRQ
Described as §1, with “PI3Kdelta” for “PI3K-gamma”, “PI3Kδ (p110δ/p85α)” for “PI3Kγ (p110γ)”, “Eurofins (St Charles, Mo.).” for “Life technology (Grand Island, N.Y.).”, “PI3Kδ” for “PI3Kγ”, “3.4” for “13”, “PI3Kδ.” for “PI3Kγ.”.

Chain of Phosphatidylinositol 4,5-bisphosphate 3-kinase catalytic subunit gamma isoform (P48736 whole entry, canonical isoform): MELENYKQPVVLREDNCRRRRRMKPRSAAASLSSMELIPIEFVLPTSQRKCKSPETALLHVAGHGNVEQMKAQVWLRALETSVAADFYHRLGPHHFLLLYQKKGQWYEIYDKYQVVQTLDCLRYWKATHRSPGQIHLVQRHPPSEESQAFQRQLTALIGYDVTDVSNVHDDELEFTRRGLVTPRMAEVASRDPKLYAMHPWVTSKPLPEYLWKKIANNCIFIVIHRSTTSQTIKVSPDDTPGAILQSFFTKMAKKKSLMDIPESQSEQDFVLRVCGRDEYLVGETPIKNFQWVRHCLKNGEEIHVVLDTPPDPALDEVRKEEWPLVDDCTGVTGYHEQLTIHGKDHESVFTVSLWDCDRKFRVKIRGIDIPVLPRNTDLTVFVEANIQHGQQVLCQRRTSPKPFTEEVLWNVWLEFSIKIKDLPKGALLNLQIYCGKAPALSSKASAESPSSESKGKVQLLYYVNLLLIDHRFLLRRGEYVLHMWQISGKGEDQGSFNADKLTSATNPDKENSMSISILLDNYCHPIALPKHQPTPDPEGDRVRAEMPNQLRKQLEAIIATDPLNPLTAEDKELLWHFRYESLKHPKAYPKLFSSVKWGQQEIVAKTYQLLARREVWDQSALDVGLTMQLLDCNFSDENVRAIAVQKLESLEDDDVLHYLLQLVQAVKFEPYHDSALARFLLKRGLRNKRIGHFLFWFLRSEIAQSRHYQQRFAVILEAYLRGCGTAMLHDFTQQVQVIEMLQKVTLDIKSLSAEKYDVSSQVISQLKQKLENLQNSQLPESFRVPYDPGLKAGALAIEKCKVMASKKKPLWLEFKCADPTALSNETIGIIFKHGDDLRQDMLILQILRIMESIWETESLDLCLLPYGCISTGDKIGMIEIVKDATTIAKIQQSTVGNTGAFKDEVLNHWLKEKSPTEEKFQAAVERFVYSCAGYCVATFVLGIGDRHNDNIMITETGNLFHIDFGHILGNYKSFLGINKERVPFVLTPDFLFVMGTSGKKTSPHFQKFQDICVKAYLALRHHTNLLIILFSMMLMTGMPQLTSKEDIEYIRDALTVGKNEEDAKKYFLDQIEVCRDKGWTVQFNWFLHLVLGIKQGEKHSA

As a reminder, the IC50 is the concentration that gives 50% inhibition. Take `Cc1ncc(-c2nc(-c3cc(C(O)(C(N)=O)C(F)(F)F)ccc3C)cnc2N)s1` (configuration not stated): the half-inhibitory concentration (IC50) in test [1] and in test [2] was under 100 nM throughout.

The values above are taken from ChEMBL document CHEMBL5728563, “Aminopyrazine derivatives as PI3K-γ inhibitors” (2021).
